Data reported in patent US20240217974A1, “ISOQUINOLONE COMPOUND AND USE THEREOF” (Suzhou Suncadia Biopharmaceuticals Co., Ltd., priority 2021, published 2024).
Where two headings read alike, the source gives them in different places.

Legend:
[1] = target: T1, PDE3A (Homo sapiens, UniProt Q14432); assay: In vitro PDE3A enzyme activity assay (IMAP FP-based); format: biochemical
T1 construct: purchased BPS 60030
Experimental: (§1) The formula for calculating inhibition rates is: inhibition rate=M/(M−Mcontrol)×100; IC50 values were calculated from concentration-inhibition rate curves fitted.

[2] = mouse, in vivo, inhaled or intranasal
Experimental: To evaluate the pharmacokinetic characteristics of test samples in […] and their distributions in lung tissue after intratracheal administration.
0.5 g of tween 80 was weighed out and dissolved in 50 mL of a pH 2.5 citric acid/disodium hydrogen phosphate buffered salt solution for later use.
1.0 mg of test compound was weighed out and dissolved in a proper amount of the tween solution to prepare a 0.03 mg/mL for later use.
0.5 g of CMC-Na and 0.5 g of tween 20 were weighed out and well mixed with 50 mL of 0.9% normal saline solution to obtain a 1% CMC-Na and tween 20 solution for later use.
1.0 mg of test compound was weighed out, added to 10 mL of the above solution, dispersed ultrasonically, and well stirred to obtain a suspension for later use.
Mice were anesthetized with isoflurane gas and then administered compounds via the trachea. […] 200 μL of whole blood was collected, then anticoagulated with EDTA-K2, and centrifuged at 2-8° C. at a rate of about 6800 g for 6 min. The resulting plasma was transferred to properly labeled test tubes within 1 h of blood collection/centrifugation and stored at −80° C. […] The collected tissue samples were transferred to properly labeled test tubes and stored at −80° C.
Plasma samples (30.0 μL) were added to 1.5 mL centrifuge tubes, and 150 μL of internal standard working solution was added. […]

[3] = target: T2, PDE4B1 (Homo sapiens, UniProt Q07343); assay: In vitro PDE4B enzyme activity assay (IMAP FP-based); format: biochemical
T2 construct: purchased BPS 60041
Experimental: as §1

[4] = recent phase II clinical data; cited from earlier work

T2 sequence (Q07343 whole entry): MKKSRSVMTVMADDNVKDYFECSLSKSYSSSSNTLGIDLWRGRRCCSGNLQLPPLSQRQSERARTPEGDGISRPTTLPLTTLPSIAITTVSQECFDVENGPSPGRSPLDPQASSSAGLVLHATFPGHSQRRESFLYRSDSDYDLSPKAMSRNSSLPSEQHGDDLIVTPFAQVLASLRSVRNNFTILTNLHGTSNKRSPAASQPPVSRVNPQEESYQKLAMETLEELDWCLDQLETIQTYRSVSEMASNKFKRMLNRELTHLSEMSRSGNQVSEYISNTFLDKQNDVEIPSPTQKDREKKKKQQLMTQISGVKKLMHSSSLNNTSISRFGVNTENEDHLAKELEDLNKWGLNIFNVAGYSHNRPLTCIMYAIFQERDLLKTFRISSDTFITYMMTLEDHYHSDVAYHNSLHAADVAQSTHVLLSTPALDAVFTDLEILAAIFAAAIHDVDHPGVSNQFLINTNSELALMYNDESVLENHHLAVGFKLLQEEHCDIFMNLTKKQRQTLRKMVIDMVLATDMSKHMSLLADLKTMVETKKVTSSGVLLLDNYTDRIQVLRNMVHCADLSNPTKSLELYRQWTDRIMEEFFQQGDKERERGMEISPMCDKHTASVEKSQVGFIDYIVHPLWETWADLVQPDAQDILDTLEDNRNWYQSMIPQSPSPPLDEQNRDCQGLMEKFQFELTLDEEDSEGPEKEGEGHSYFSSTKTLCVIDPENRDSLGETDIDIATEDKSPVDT
T1 sequence (Q14432 669-1141 limits assumed): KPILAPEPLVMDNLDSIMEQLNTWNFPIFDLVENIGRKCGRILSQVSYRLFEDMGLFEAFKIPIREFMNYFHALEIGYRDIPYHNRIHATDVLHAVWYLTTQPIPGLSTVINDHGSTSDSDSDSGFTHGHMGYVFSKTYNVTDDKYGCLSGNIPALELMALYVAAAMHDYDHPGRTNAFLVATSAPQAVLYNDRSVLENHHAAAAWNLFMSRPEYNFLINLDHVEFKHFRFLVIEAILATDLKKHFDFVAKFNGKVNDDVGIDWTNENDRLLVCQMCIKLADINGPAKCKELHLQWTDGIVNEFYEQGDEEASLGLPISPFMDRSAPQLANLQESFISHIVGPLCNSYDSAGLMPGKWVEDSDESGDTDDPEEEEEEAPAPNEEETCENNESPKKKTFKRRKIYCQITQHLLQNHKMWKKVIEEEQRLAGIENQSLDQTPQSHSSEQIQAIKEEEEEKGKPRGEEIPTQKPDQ

Compound | IC50 [1] | Inhibition rate (%) PDE3A (500 nM) ([1]; compound at 500 nM) | Plasma T1/2 [2] | Plasma Tmax [2] | Inhibition rate (%) PDE4B1 (2000 nM) ([3]; compound at 2000 nM) | IC50 ([3]; read-out: IC50 (nM) PDE4B1) | bronchodilation and symptoms in patients with chronic obstructive pulmonary disease [4] | tolerability / adverse events [4] | IC50 [3] | inhibition at 2 µM ([3]; read-out: Inhibition rate (%) PDE4B1 (2000 nM))
9,10-dimethoxy-2-(2,4,6-trimethylphenylimino)-3-(N-carbamoyl-2-aminoethyl)-3,4,6,7-tetrahydro-2H-pyrimido[6,l-a]isoquinolin-4-one [RPL554] | 0.25 nM | 99.2% | 52.8 min | 15 min | 64.2% | 110 nM | significantly improve bronchodilation and symptoms | well tolerated |  | 
CCOc1cc2c(cc1OC)-c1cc(N(CCN3CCOC3=O)c3c(C)cc(C)cc3C)nc(=O)n1CC2 [WX001] |  |  |  |  |  |  |  |  | 876 nM | 66.3%
